27 compounds from patent publication US10543212B2, “Substituted amines for treating cardiac diseases” (Cardurion Pharmaceuticals, LLC, priority 2017, dated 2020) can be followed below.

Structures are written as SMILES. pIC50: −log10 of the molar value. Where only a bound is given, the exact number is not on record here.

The pIC50 is the negative decadic logarithm of the IC50, by convention in mol/L. Read a high pIC50 as a low IC50.

For the assay, the target named is T1, Full-length, GST-tagged, human CaMKIIδ (Homo sapiens, UniProt Q13557).
T1 construct: Full-Length, Glutathione-S-Transferase(GST)-Tagged, Human CaMKIIδ was purchased from Carna Biosciences; purchased Carna Biosciences 02-111
T1 sequence (Q13557 1-478 isoform Q13557-12): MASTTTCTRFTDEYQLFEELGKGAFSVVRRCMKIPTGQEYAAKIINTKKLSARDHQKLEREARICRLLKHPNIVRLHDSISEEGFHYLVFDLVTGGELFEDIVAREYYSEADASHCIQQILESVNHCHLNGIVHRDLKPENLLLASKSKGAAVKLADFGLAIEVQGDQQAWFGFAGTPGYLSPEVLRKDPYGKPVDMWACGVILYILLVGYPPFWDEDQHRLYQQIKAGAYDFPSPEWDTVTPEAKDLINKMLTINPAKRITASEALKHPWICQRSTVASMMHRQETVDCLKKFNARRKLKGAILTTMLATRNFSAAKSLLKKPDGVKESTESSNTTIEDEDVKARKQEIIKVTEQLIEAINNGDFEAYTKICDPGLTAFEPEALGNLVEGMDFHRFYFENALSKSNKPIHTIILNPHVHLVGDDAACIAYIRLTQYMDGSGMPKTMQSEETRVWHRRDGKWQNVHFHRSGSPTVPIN
Description: CaMKIIδ binding assay (TR-FRET with BODIPY-labeled probe ligand). The note with it: Table 2; CaMKIIδ binding assay, activity given as class A/B/C. The gist of the method: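 TR-FRET probe-displacement binding: 0.5 nM GST-CaMKIIδ with 10 μg/mL calmodulin, 1 mM CaCl2, 0.21 nM Tb-anti-GST Ab and 300 nM BODIPY probe in HEPES pH 7.6 buffer. Eight-point 4-fold dilutions, 1 hr at room temperature. IC50 from logistic fit; 100% inhibition defined by 3 μM parent compound.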
(In general: TR-FRET usually uses a lanthanide donor and a delayed reading to cut background.)
Regarding `C[C@@H](Cn1cnnn1)Oc1cc(-c2cnc(Nc3cn(CC4(CO)COC4)nc3C(F)(F)F)nc2)ccc1Cl` [Example 732, (S)-(3-((4-((5-(3-((1-(1H-tetrazol-1-yl)propan-2-yl)oxy)-4-chlorophenyl)pyrimidin-2-yl)amino)-3-(trifluoromethyl)-1H-pyrazol-1-yl)methyl)oxetan-3-yl)methanol], the pIC50 is 7.00 to 8.00.
Take `C[C@@H](Cn1cnnn1)Oc1cc(-c2cnc(Nc3cn(C4CCCCC4O)nc3C(F)(F)F)nc2)ccc1Cl` (stereo partly drawn) [Example 733, 2-(4-((5-(3-(((S)-1-(1H-tetrazol-1-yl)propan-2-yl)oxy)-4-chlorophenyl)pyrimidin-2-yl)amino)-3-(trifluoromethyl)-1H-pyrazol-1-yl)cyclohexan-1-ol]: the pIC50 is over 8.00.
Under `Cc1noc(C)c1Cn1cc(Nc2ncc(-c3ccc(Cl)c(O[C@@H](C)Cn4cnnn4)c3)cn2)c(C(F)(F)F)n1` [Example 734, (S)-5-(3-((1-(1H-tetrazol-1-yl)propan-2-yl)oxy)-4-chlorophenyl)-N-(1-((3,5-dimethylisoxazol-4-yl)methyl)-3-(trifluoromethyl)-1H-pyrazol-4-yl)pyrimidin-2-amine] stands 7.00 to 8.00.
`C[C@@H](Cn1cnnn1)Oc1cc(-c2cnc(Nc3ccnn3C)nc2)ccc1Cl` [Example 735, (S)-5-(3-((1-(1H-tetrazol-1-yl)propan-2-yl)oxy)-4-chlorophenyl)-N-(1-methyl-1H-pyrazol-5-yl)pyrimidin-2-amine] had a pIC50 of 7.00 to 8.00.
In the case of `C[C@@H](Cn1cnnn1)Oc1cc(-c2cnc(Nc3cn(CC(O)CO)nc3C(F)(F)F)nc2)ccc1Cl` (stereo partly drawn) [Example 736, 3-(4-((5-(3-(((S)-1-(1H-tetrazol-1-yl)propan-2-yl)oxy)-4-chlorophenyl)pyrimidin-2-yl)amino)-3-(trifluoromethyl)-1H-pyrazol-1-yl)propane-1,2-diol], the pIC50 was over 8.00.
With `COCCn1cc(Nc2ncc(-c3ccc(Cl)c(O[C@@H](C)Cn4cnnn4)c3)cn2)c(C(F)(F)F)n1` [Example 737, (S)-5-(3-((1-(1H-tetrazol-1-yl)propan-2-yl)oxy)-4-chlorophenyl)-N-(1-(2-methoxyethyl)-3-(trifluoromethyl)-1H-pyrazol-4-yl)pyrimidin-2-amine], the pIC50 is 7.00 to 8.00.
Under `C[C@@H](Cn1cnnn1)Oc1cc(-c2cnc(Nc3cn(CC4CNC(=O)O4)nc3C(F)(F)F)nc2)ccc1Cl` (stereo partly drawn) [Example 738, 5-((4-((5-(3-(((S)-1-(1H-tetrazol-1-yl)propan-2-yl)oxy)-4-chlorophenyl)pyrimidin-2-yl)amino)-3-(trifluoromethyl)-1H-pyrazol-1-yl)methyl)oxazolidin-2-one] stands over 8.00; under `C[C@@H](Cn1cnnn1)Oc1cc(-c2cnc(Nc3cn(C4CCCC4)nc3C(F)(F)F)nc2)ccc1Cl` [Example 739, (S)-5-(3-((1-(1H-tetrazol-1-yl)propan-2-yl)oxy)-4-chlorophenyl)-N-(1-cyclopentyl-3-(trifluoromethyl)-1H-pyrazol-4-yl)pyrimidin-2-amine], 7.00 to 8.00.
`C[C@@H](Cn1cnnn1)Oc1cc(-c2cnc(Nc3cc(C(C)(C)C)nn3C)nc2)ccc1Cl` [Example 740, (S)-5-(3-((1-(1H-tetrazol-1-yl)propan-2-yl)oxy)-4-chlorophenyl)-N-(3-(tert-butyl)-1-methyl-1H-pyrazol-5-yl)pyrimidin-2-amine]: the pIC50 is at most 7.00.
Under `C[C@@H](Cn1cnnn1)Oc1cc(-c2cnc(Nc3cn(Cc4nc5ccccc5c(=O)[nH]4)nc3C(F)(F)F)nc2)ccc1Cl` [Example 741, (S)-2-((4-((5-(3-((1-(1H-tetrazol-1-yl)propan-2-yl)oxy)-4-chlorophenyl)pyrimidin-2-yl)amino)-3-(trifluoromethyl)-1H-pyrazol-1-yl)methyl)quinazolin-4(3H)-one] stands 7.00 to 8.00; under `Cc1cc(Nc2ncc(-c3ccc(Cl)c(O[C@@H](C)Cn4cnnn4)c3)cn2)n(C(C)C)n1` [Example 742, (S)-5-(3-((1-(1H-tetrazol-1-yl)propan-2-yl)oxy)-4-chlorophenyl)-N-(1-isopropyl-3-methyl-1H-pyrazol-5-yl)pyrimidin-2-amine], 7.00 to 8.00; under `C[C@@H](Cn1cnnn1)Oc1cc(-c2cnc(Nc3cn(CC(F)F)nc3C(F)(F)F)nc2)ccc1Cl` [Example 743, (S)-5-(3-((1-(1H-tetrazol-1-yl)propan-2-yl)oxy)-4-chlorophenyl)-N-(1-(2,2-difluoroethyl)-3-(trifluoromethyl)-1H-pyrazol-4-yl)pyrimidin-2-amine], 7.00 to 8.00.
Under `C[C@@H](Cn1cnnn1)Oc1cc(-c2cnc(Nc3cn(CC(O)(C(F)(F)F)C(F)(F)F)nc3C(F)(F)F)nc2)ccc1Cl` [Example 744, (S)-2-((4-((5-(3-((1-(1H-tetrazol-1-yl)propan-2-yl)oxy)-4-chlorophenyl)pyrimidin-2-yl)amino)-3-(trifluoromethyl)-1H-pyrazol-1-yl)methyl)-1,1,1,3,3,3-hexafluoropropan-2-ol] stands at most 7.00.
The value for `C[C@@H](Cn1cnnn1)Oc1cc(-c2cnc(Nc3nc4ccccc4n3C)nc2)ccc1Cl` [Example 745, (S)-N-(5-(3-((1-(1H-tetrazol-1-yl)propan-2-yl)oxy)-4-chlorophenyl)pyrimidin-2-yl)-1-methyl-1H-benzo[d]imidazol-2-amine] was at most 7.00.
With `Cc1cc(Nc2ncc(-c3ccc(Cl)c(O[C@@H](C)Cn4cnnn4)c3)cn2)n(CCC#N)n1` [Example 746, (S)-3-(5-((5-(3-((1-(1H-tetrazol-1-yl)propan-2-yl)oxy)-4-chlorophenyl)pyrimidin-2-yl)amino)-3-methyl-1H-pyrazol-1-yl)propanenitrile], the pIC50 was at most 7.00.
Under `Cc1noc(C)c1Nc1ncc(-c2ccc(Cl)c(O[C@@H](C)Cn3cnnn3)c2)cn1` [Example 747, (S)-N-(5-(3-((1-(1H-tetrazol-1-yl)propan-2-yl)oxy)-4-chlorophenyl)pyrimidin-2-yl)-3,5-dimethylisoxazol-4-amine] stands 7.00 to 8.00; under `C[C@@H](Cn1cnnn1)Oc1cc(-c2cnc(Nc3snnc3-c3ccc(Cl)cc3)nc2)ccc1Cl` [Example 748, (S)-N-(5-(3-((1-(1H-tetrazol-1-yl)propan-2-yl)oxy)-4-chlorophenyl)pyrimidin-2-yl)-4-(4-chlorophenyl)-1,2,3-thiadiazol-5-amine], at most 7.00.
Under `C[C@@H](Cn1cnnn1)Oc1cc(-c2cnc(Nc3n[nH]cc3Cl)nc2)ccc1Cl` [Example 749, (S)-5-(3-((1-(1H-tetrazol-1-yl)propan-2-yl)oxy)-4-chlorophenyl)-N-(4-chloro-1H-pyrazol-3-yl)pyrimidin-2-amine] stands 7.00 to 8.00; under `C[C@@H](Cn1cnnn1)Oc1cc(-c2cnc(Nc3ncc(CO)n3C)nc2)ccc1Cl` [Example 750, (S)-(2-((5-(3-((1-(1H-tetrazol-1-yl)propan-2-yl)oxy)-4-chlorophenyl)pyrimidin-2-yl)amino)-1-methyl-1H-imidazol-5-yl)methanol], at most 7.00; under `Cc1cc(Nc2ncc(-c3ccc(Cl)c(O[C@@H](C)Cn4cnnn4)c3)cn2)n(C)n1` [Example 751, (S)-5-(3-((1-(1H-tetrazol-1-yl)propan-2-yl)oxy)-4-chlorophenyl)-N-(1,3-dimethyl-1H-pyrazol-5-yl)pyrimidin-2-amine], 7.00 to 8.00.
Compound `C[C@@H](Cn1cnnn1)Oc1cc(-c2cnc(Nc3sc4c(c3C#N)CCCC4)nc2)ccc1Cl` [Example 752, (S)-2-((5-(3-((1-(1H-tetrazol-1-yl)propan-2-yl)oxy)-4-chlorophenyl)pyrimidin-2-yl)amino)-4,5,6,7-tetrahydrobenzo[b]thiophene-3-carbonitrile] showed a pIC50 of 7.00 to 8.00.
As to `C[C@@H](Cn1cnnn1)Oc1cc(-c2cnc(Nc3sc4c(c3C#N)CCC4)nc2)ccc1Cl` [Example 753, (S)-2-((5-(3-((1-(1H-tetrazol-1-yl)propan-2-yl)oxy)-4-chlorophenyl)pyrimidin-2-yl)amino)-5,6-dihydro-4H-cyclopenta[b]thiophene-3-carbonitrile], the pIC50 is at most 7.00.
The value for `C[C@@H](Cn1cnnn1)Oc1cc(-c2cnc(Nc3ccnn3-c3ccccc3)nc2)ccc1Cl` [Example 754, (S)-5-(3-((1-(1H-tetrazol-1-yl)propan-2-yl)oxy)-4-chlorophenyl)-N-(1-phenyl-1H-pyrazol-5-yl)pyrimidin-2-amine] was 7.00 to 8.00; that for `C[C@@H](Cn1cnnn1)Oc1cc(-c2cnc(Nc3ccn(C)n3)nc2)ccc1Cl` [Example 755, (S)-5-(3-((1-(1H-tetrazol-1-yl)propan-2-yl)oxy)-4-chlorophenyl)-N-(1-methyl-1H-pyrazol-3-yl)pyrimidin-2-amine] was 7.00 to 8.00; that for `C[C@@H](Cn1cnnn1)Oc1cc(-c2cnc(Nc3cn(CC(F)(F)F)nc3OCC(F)(F)F)nc2)ccc1Cl` [Example 756, (S)-5-(3-((1-(1H-tetrazol-1-yl)propan-2-yl)oxy)-4-chlorophenyl)-N-(3-(2,2,2-trifluoroethoxy)-1-(2,2,2-trifluoroethyl)-1H-pyrazol-4-yl)pyrimidin-2-amine] was 7.00 to 8.00.
The value for `C[C@@H](Cn1cnnn1)Oc1cc(-c2cnc(Nc3cn([C@@H]4C[C@H]5CC[C@@H](C4)N5C4CC4)nc3C(F)(F)F)nc2)ccc1Cl` [Example 757, 5-(3-(((S)-1-(1H-tetrazol-1-yl)propan-2-yl)oxy)-4-chlorophenyl)-N-(1-((1R,3s,5S)-8-cyclopropyl-8-azabicyclo[3.2.1]octan-3-yl)-3-(trifluoromethyl)-1H-pyrazol-4-yl)pyrimidin-2-amine] was over 8.00.
The value for `C[C@@H](Cn1cnnn1)Oc1cc(-c2cnc(Nc3cn([C@@H]4C[C@H]5CC[C@@H](C4)N5C)nc3C(F)(F)F)nc2)ccc1Cl` [Example 758, 5-(3-(((S)-1-(1H-tetrazol-1-yl)propan-2-yl)oxy)-4-chlorophenyl)-N-(1-((1R,3s,5S)-8-methyl-8-azabicyclo[3.2.1]octan-3-yl)-3-(trifluoromethyl)-1H-pyrazol-4-yl)pyrimidin-2-amine] was over 8.00.
